From patent publication US20230399361A1, “MACROCYCLIC PEPTIDES” (UNIVERSITY OF NOTRE DAME DU LAC, priority 2022, published 2023) come the findings set out here.

Data set [1] concerns HEK293 cells stably expressing tau-RD (LM)-YFP.
Method: MTT cell viability assays were carried out on both HEK293 cells stably expressing tau-RD (LM)-YFP and SH-SY5Y cells. Cells were cultured in the DMEM/F12 complete medium containing 10% FBS, 1% penicillin/streptomycin, and 1% Glutamax in a 75 cm^2 cell culture flask under 5% CO2 at 37° C. Cell viability was determined using the MTT reduction assay. Briefly, 15,000 cells/well were plated in a 96-well tissue culture plate and were allowed to incubate overnight in a CO2 incubator. The medium was aspirated and the NAP inhibitor prepared in complete medium was added at a given final concentration. The plate was then allowed to incubate for additional 48 h in a CO2 incubator, and the medium was aspirated again and replaced with 0.5 mg/mL MTT prepared in complete medium and incubated for additional 3 h. The medium was then replaced with DMSO to dissolve formazan crystals, and the absorbance was measured at 570 nm using a Synergy H1 microplate reader. Each data set was collected from technical replicates on at least 2 different days.
The target of a further data set is T1, tauP301L fibrils (Homo sapiens, UniProt P10636, P618L).
T1 construct: we expressed and purified full-length tau featuring a P301L mutation; His6 (N); made in house; host or cells: E. coli BL21 (DE3)
The experiment in a line: Cellular seeding assay with pre-formed tauP301L fibrils, HEK293 tau-RD(LM)-YFP biosensor cells. It is filed as cell-based. The settings on record: for inhibition of propagation of pre-formed tauP301L fibrils: mature fibrils incubated with NAP 36 h before cells; for IC50: pre-formed 0.19 μM tauP301L fibrils treated 36 h with NAP, cells 48 h, three repeated experiments, read-out: fibril capping IC50 in cells; for inhibition of endogenous tau aggregation without co-incubation: without the 36 h inhibitor + mature fibril co-incubation period. On the procedure: Given that pathogenic tau can be secreted from cells in various forms (as oligomers, aggregates, or mature fibrils), we tested whether NAPs could block the cellular transmission of pre-formed fibrils. In this experiment, NAPs were incubated with mature tauP301L fibrils for 36 h prior to treatment of cells expressing tau-RD(LM)-YFP. […] We determined a fibril capping IC50 in cells in the 5 μM range across three repeated experiments (FIG. 4).
We then considered the possibility of di-NAPs 12 and 13 entering cells and inhibiting seeding by interacting with endogenous tau-RD(LM)-YFP, rather than with extracellular pre-formed fibrils. We thus repeated the experiment without the 36 h inhibitor+mature fibril co-incubation period.
For seeding experiments with fibrillar tau, recombinant tauP301L fibrils were prepared as described above (see the section on fibril formation) and sonicated for 3 min prior to use in this assay. In a reaction volume of 40, 8 μL of fibrils was diluted with 31 μL of low-serum Opti-MEM medium and then mixed with 1 μL of NAPs (DMSO concentration was constant across various concentrations of inhibitors). The reaction mixture was then allowed to incubate at 37° C. for 36 h, then mixed with 2 μL of Lipofectamine 2000, and further incubated for 20 min at rt. A 10 μL aliquot of this mixture was then added to 90 μL of cells (15,000 cells/well). Cells were incubated for additional 48 h before taking measurements on a BioTek Cytation 5 cell imager and a microplate reader. 10×10 pictures/well were taken at 20× magnification under an FITC channel, and the punctate counting were carried out using built-in software. […] Every experiment included control wells (no tau, no heparin, and no NAP). All data plots were generated with SigmaPlot. IC50 values were calculated by fitting the data set using the sigmoidal logistic four-parameter equation. Error bars represent standard deviation from technical replicates.

The nature of data set [2]: Self-aggregation of peptides alone by ThT fluorescence. The settings on record: incubated alone in aq. NaOAc buffer, 48 h. It is filed as physicochemical. An excerpt: NAP Tau Mimics Inhibit Tau Fibrilization In Vitro. We chose thioflavin T (ThT), an amyloid specific fluorescent dye that binds to β-sheet assemblies, to first evaluate the effect of NAPs on recombinant tau aggregation. For these studies, we expressed and purified full-length tau featuring a P301L mutation frequently observed in patients with frontotemporal dementia and Parkinsonism linked to chromosome 17 (FTDP-17). This missense mutation leads to local structure destabilization around the amyloid-forming region resulting in faster aggregation. Recombinant tauP301L aggregated in the presence of equimolar heparin sulfate (t1/2=6.5±0.4 h) starting with a very short 0.5 h lag phase, followed by a 24 h exponential growth phase. […] Compounds 2 and 4 are mono- and diaminated hexapeptides derived from the R2 PHF6* aggregation-prone sequence, whereas compounds 5, 6, 12, and 13 are all derived from the R3 PHF6 sequence. Several other NAPs had no effect on endpoint ThT fluorescence or lacked consistent inhibition across repeated experiments. […] NaOAc buffer, as evidenced by intense ThT fluorescence after 48 h (FIG. 1B).
Design and synthesis of aggregation-resistant backbone-aminated derivatives of mxyl-AD. The data above support the hypothesis that mxyl-AD mimetic macrocycle can engage in native-like hydrophobic cross-b interactions as well as edge-to-edge H-bonds along the fibril axis. We next sought to employ mxyl-AD as a template for the design of tau seeding inhibitors that could potentially cap fibril growth and block propagation. This required us to incorporate a chemical modification onto mxyl-AD that would preclude its ability to self-assemble without disrupting its capacity to adopt the conformation required to bind tau. We therefore designed two backbone N-amino peptide (NAP) derivatives of our tau mimic, mxyl-NAP1 and mxyl-NAP2 (Scheme 1). Each of these analogues features a backbone amide substitution that precludes canonical b-sheet H-bonding along one edge of the macrocycle, while leaving the other edge intact to engage the tau protein. […] Both mxyl-NAP1 and mxyl-NAP2, which feature a single backbone N-amino group within the amyloidogenic PHF6 module, were prepared on solid support starting from Fmoc-protected N-amino dipeptides.

In another data set the target is T2, Aβ42 (Homo sapiens, UniProt P05067).
T2 construct: Incubation of synthetic, full-length Aβ42 (40 μM)
The experiment in a line: ThT fluorescence assay with Aβ42. The data set is classed as biochemical. The source says:
A peptidomimetic approach to tau inhibition offers prospects for achieving selectivity over other amyloids rich in f structure. As a preliminary test, we selected our best-performing aggregation-inhibitory tau mimic, 12, and determined its effect on Aβ42 aggregation in vitro (FIG. 6). […] We similarly observed no effect on aggregation kinetics at any of the concentrations tested.

A further data set in a line: in vitro. As to conditions: human, serum, intact peptide in 25% human serum.
For data set [3] the following is noted: 24 h, 500 μM.
Method: (§1) Human Serum Stability Assay. The stability of NAPs in 25% human serum (MilliporeSigma) was assessed by HPLC. The reaction was started by adding NAPs at a final concentration of 500 μM in pre-warmed serum. The mixture was incubated at 37° C. for 24 h. A 100 μL aliquot of the reaction mixture was taken out at 0, 1, 4, and 24 h and was mixed with an equal volume of 20% trichloroacetic acid and incubated at 4° C. for 15 min to precipitate serum proteins. After centrifugation at 12,000 rpm for 10 min, the supernatant was collected and mixed with an internal standard (1 mg/mL Cbz-Tyr-OH dissolved in MeCN) and stored at −20° C. Samples were then analyzed by LC-MS, and the percentage of peptide remaining was calculated by integrating peaks.

*1 amine or outer side, *2 acyl side, *3 side chain or, on linkers, in order; H or OH if unused. Where a SMILES comes first, the peptide text is derived from it. Primed or numbered codes have the meaning given here. [ ]: non-standard residue; d: D form. The star is where a group is joined. aIle′ = Ile with backbone amide N-amino (hydrazide NNH2), CC[C@H](C)[C@@H](C(=O)[*:2])N(N)[*:1]; aVal = Val with backbone amide N-amino (hydrazide NNH2), CC(C)[C@@H](C(=O)[*:2])N(N)[*:1]; X2 = NN([C@@H](Cc1ccc(O)cc1)C(=O)[*:2])[*:1]; X1 = CC[C@H](C)[C@@H](C(=O)[*:2])N(N)[*:1]; N(NH2)LysNH2 = NCCCC[C@@H](C(N)=O)N(N)*; X3 = CC(C)[C@@H](C(=O)[*:2])N(N)[*:1] A value given as a limit tells only on which side of the number the result lay.

T2 sequence (P05067 672-713 limits assumed): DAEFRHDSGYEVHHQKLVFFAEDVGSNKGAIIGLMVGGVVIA
T1 sequence (P10636 1-383 isoform P10636-6 P243L): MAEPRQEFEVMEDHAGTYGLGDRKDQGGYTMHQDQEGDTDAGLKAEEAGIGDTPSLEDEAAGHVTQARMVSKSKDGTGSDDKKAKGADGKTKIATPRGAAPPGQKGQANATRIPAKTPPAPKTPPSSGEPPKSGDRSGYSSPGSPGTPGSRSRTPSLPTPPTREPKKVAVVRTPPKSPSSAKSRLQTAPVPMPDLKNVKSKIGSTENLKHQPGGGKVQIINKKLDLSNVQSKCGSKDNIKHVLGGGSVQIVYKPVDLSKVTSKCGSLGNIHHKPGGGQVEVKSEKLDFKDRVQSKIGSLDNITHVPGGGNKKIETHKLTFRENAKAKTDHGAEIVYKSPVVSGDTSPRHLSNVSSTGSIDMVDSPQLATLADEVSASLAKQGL
Method for in vitro: as §1

As to `CC[C@H](C)[C@@H](C(=O)N[C@H](C(=O)N(N)[C@@H](Cc1ccc(O)cc1)C(=O)N[C@@H](CCCCN)C(N)=O)C(C)C)N(N)C(=O)[C@H](CCC(N)=O)NC(=O)[C@@H](NC(C)=O)C(C)C` [Compound 12, Ac-Val-Gln-aIle-Val-aTyr-Lys-NH2] (Ac-VQ[X1]V[X2]K-NH2), the “toxicity to HEK293 biosensor cells in seeding experiments” value in data set [1] is “did not result in detectable toxicity”. Besides, at tauP301L fibrils, the “inhibition of propagation of pre-formed tauP301L fibrils” value is on record as “effectively inhibit propagation in a dose-dependent manner”; the IC50 (in general, the concentration needed to halve the response being measured) is ~5 µM; the “inhibition of endogenous tau aggregation without co-incubation” value is listed as “failed to inhibit endogenous tau aggregation”. In data set [2], the “self-aggregation, ThT fluorescence of peptide alone” value (“self-aggregation, ThT fluorescence” below) is on record as “no such fluorescence”. Further, the “effect on Aβ42 aggregation (ThT)” value at Aβ42 (40 μM Aβ42, up to 4-fold molar excess (160 μM)) was “no inhibitory effect”. Further, the “effect on Aβ42 aggregation kinetics” value at Aβ42 (any of the concentrations tested) is “no effect”. The “selectivity for tau over Aβ42” value at Aβ42 (in vitro) was “in vitro selectivity for tau over Aβ42”. Also, in the data set “in vitro”, the amount remaining (in general, what is left of the initial amount, in per cent) at 24 h, 500 μM is > 83%. Also, in data set [3], the “intact peptide in 25% human serum” value is > 80%.
Turning to `CC[C@H](C)[C@H](NC(=O)[C@H](CCC(N)=O)NC(=O)[C@@H](NC(C)=O)C(C)C)C(=O)N(N)[C@H](C(=O)N[C@@H](Cc1ccc(O)cc1)C(=O)N(N)[C@@H](CCCCN)C(N)=O)C(C)C` [Compound 13, Ac-Val-Gln-Ile-aVal-Tyr-aLys-NH2] (Ac-VQI[X3]Y-{N(NH2)LysNH2}), the “toxicity to HEK293 biosensor cells in seeding experiments” value in data set [1] was “did not result in detectable toxicity”. For the same molecule, at tauP301L fibrils, the “inhibition of propagation of pre-formed tauP301L fibrils” value is listed as “effectively inhibit propagation in a dose-dependent manner”, the IC50 was ~5 µM and the “inhibition of endogenous tau aggregation without co-incubation” value was “failed to inhibit endogenous tau aggregation”. Also, the “self-aggregation, ThT fluorescence” value in data set [2] was “no such fluorescence”. In the data set “in vitro”, the fraction remaining at 24 h, 500 μM was > 83%. Moreover, the “intact peptide in 25% human serum” value in data set [3] is listed as > 80%.
In the case of “Ac-aVal-Gln-aIle-Ile-Asn-Lys-NH2 (Ac-[aVal]Q[aIle′]INK-NH2; SMILES CC[C@H](C)[C@H](NC(=O)[C@H]([C@@H](C)CC)N(N)C(=O)[C@H](CCC(N)=O)NC(=O)[C@H](C(C)C)N(N)C(C)=O)C(=O)N[C@@H](CC(N)=O)C(=O)N[C@@H](CCCCN)C(N)=O) [Compound 4]”, in the data set with tauP301L fibrils, the “inhibition of propagation of pre-formed tauP301L fibrils” value is “generally ineffective”. In addition, the “self-aggregation, ThT fluorescence” value in data set [2] is “no such fluorescence”.
